Laboratory results from patent publication EP4129319A1, “PORE-FORMING ANTIMICROBIAL PEPTIDES” (priority 2021, dated 2023).
Where two headings read alike, the source gives them in different places. Ends that are not written are not given here.

What was measured:
[1] = system: human red blood cells (HRBCs); assay type: cell-based
Procedure: (§1) Chemicals. […] (Prague, Czech Republic), and Caslo ApS (Kongens Lyngby, Denmark). […] The bacterial stock was stored at -80°C.
Hemolysis assay. Hemolytic toxicity of the peptides was evaluated from their ability to lyse the fresh human red blood cells (HRBCs) collected from the University Hospital (Brno, Czech Republic). To obtain the erythrocyte pellets, the blood samples were centrifuged twice at 700×g and subsequently, once at 1000×g, each for 8 min. at 4 °C, which was followed by thorough washing with PBS. Resuspension of the pellets was done in PBS to obtain 0.5% (vol/vol) RBC suspension. In a well plate with 96 V-shaped bottom wells, the peptides were added in a dilution series from 0.1 to 50 µM concentration. Subsequently, HRBC suspension was added in each well. Negative control wells contained only PBS and HRBC suspension without any peptide (i.e., 0% lysis), and positive control wells included 5 µM melittin in the HRBC suspension. After incubation for 1 h at 37 °C, the well plates were centrifuged at 1000×g for 10 min. at 4 °C. Subsequently, the supernatant was collected in a flat-bottomed well plate and the optical density of the released hemoglobin was measured for each well at 415 nm wavelength. The calculated absorbances from the wells were then normalized against the averaged absorbances of the positive and the negative control wells. EC50 value was calculated from the normalized absorbances indicating 50% hemolysis of HRBCs. Experiments were performed in triplicates with three independent blood samples.

[2] = system: Gram-positive Staphylococcus carnosus CCM 4838T; assay type: cell-based; conditions: for Antibacterial activity (MIC in µM) S. carnosus: CCM 4838
Procedure: as §1
(§2) Broth microdilution assay. Antimicrobial activity of the peptides was investigated against Gram-negative Escherichia coli TOP10 strain and Gram-positive Staphylococcus carnosus CCM 4838T using broth microdilution assay, based on which the inventors determined the bacterial minimum inhibition concentration (MIC). After cross streaking with bacteria, the petri dishes (with MHA) were incubated for 24 h at 37 °C. Overnight grown cultures were then sub-cultured for 4-6 h at 37 °C in test tubes containing MHB. The sub-cultured solutions were subsequently diluted to a standard concentration of 10^6 colony forming units (CFU) per mL. Cell counts were determined by measuring the optical density at 600 nm. In a flat-bottomed 96 well plate, the inventors prepared a dilution series for the peptides and for the reference antibiotic ampicillin from 50 to 0.1 µM concentration, which was then inoculated with bacteria and incubated for 24 h at 37 °C. Growth control wells were free from peptides or ampicillin to show the viability of the bacteria, and sterility control wells were free from bacterial inoculation to verify the sterility of the medium. The bacterial growth was visually evaluated based on the turbidity. MIC was determined as the lowest concentrated well where no visible bacterial growth was observed. To test the bacteriostatic or bacteriocidal activity of the peptides, 50 µl solution from the highest concentrated well (i.e., 50 µM) was transferred to a test tube containing 4 mL sterile MHB and incubated for 24 h at 37 °C under constant stirring. Streaking of the same solution was done on MHA containing petri dishes and incubated for 24 h at 37 °C to confirm the morphology of the colonies grown. Experiments were performed in triplicates.

[3] = system: Gram-negative Escherichia coli TOP10 strain; assay type: cell-based; conditions: broth microdilution assay; E. coli TOP10
Procedure: as §1, §2

[4] = system: human dermal fibroblast (HDF) cell lines; assay: Neutral red uptake assay (cytotoxicity); assay type: cell-based
Procedure: Neutral red uptake assay. To evaluate the cytotoxicity of the peptides against human dermal fibroblast (HDF) cell lines, the inventors purchased the neutral red uptake assay from Essence Line (Praha, Czech Republic). The initial cell culture was sub-cultured in supplemented Dulbecco's Modified Eagle Medium (DMEM) and diluted to a cell density of 1 × 10^5 cells/mL. The diluted culture was then seeded into the wells (1 × 10^4

[5] = Calcein leakage assay; assay type: biochemical; conditions: for Extent of leakage (in percentage) at increasing peptide-to-lipid ratio (mol/mol) 1:50: peptide-to-lipid ratio 1:50 (mol/mol); for Extent of leakage (in percentage) at increasing peptide-to-lipid ratio (mol/mol) 1:100: peptide-to-lipid ratio 1:100 (mol/mol)
Procedure: as §1
Calcein leakage assay. Pore-forming activity of the peptides was tested by their ability to leak the self-quenching fluorescent dye calcein entrapped within POPC:POPG (1:1 mol/mol) large unilamellar vesicles (LUVs). After mixing DiD to the lipid mixture (in the ratio 1:500 mol/mol), a thin lipid film was created by evaporating of the chloroform, traces of which were removed by desiccating overnight. The lipid film was then dissolved in calcein buffer, followed by vigorous vortexing. The lipid suspension was subsequently subjected to 10 freeze-thaw cycles. To obtain uniform LUVs, the sample was passed 50 times back and forth through an extruder stacked with 100 nm pore size polycarbonate membrane filter. Afterwards, the untrapped calcein was removed on a HiTrap Desalting Column (with Sephadex G-25 Superfine resin) by washing with PBS buffer. The concentration of the lipid suspension was then adjusted to 0.02 mM. The concentration of the peptide solution was 0.1 mM. The inventors monitored the peptide-induced release of calcein from LUVs by the increase in fluorescence intensity after adding increasing amounts of peptides to the LUVs under constant stirring at 25 °C. The investigated range of peptide/lipid molecular ratio was from 1:100 to 1:10. The excitation and emission wavelengths were set to 495 nm and 520 nm, respectively. Maximum fluorescence intensity was obtained by disrupting all the vesicles in the end by adding 10% Triton X-100. Experiments were performed in triplicates with independently prepared lipid vesicles.

[6] = PBS buffer
Procedure: After storing at -20 °C, the peptides were dissolved in phosphate-buffered saline (PBS). […] The pH of all the buffers was adjusted to physiological value 7.4.

[7] = system: Acinetobacter baumanni GSAB 164; assay type: cell-based; conditions: ESKAPE panel; strain not given, ampicillin > 16 fits the 16-to-0.03 µM series of Evotec
Procedure: as §2
(§3) The antimicrobial susceptibility test of the most promising peptide against the recalcitrant ESKAPE pathogens was purchased from Evotec (Macclesfield, UK) for the following strains: Enterococcus faecium ATCC 700221, Staphylococcus aureus NRS 1, Klebsiella pneumoniae ATCC 700603, Acinetobacter baumanni GSAB 164, Pseudomonas aeruginosa ATCC 13437, Escherichia coli ATCC 25922 and Enterobacter aerogenes B207A, and was purchased from Essence Line (Praha, Czech Republic) against the following strains: Enterococcus faecium ATCC 29212, Enterococcus hirae ATCC 10541, Staphylococcus aureus ATCC 6538, ATCC 29213, Methicillin-resistant Staphylococcus aureus (MRSA) CNCTC 7452, Klebsiella pneumoniae ATCC 10031, Acinetobacter baumanni ATCC 19606, Pseudomonas aeruginosa ATCC 15442 and Escherichia coli ATCC 10536 and ATCC 35218. […]

[8] = system: Enterococcus faecium ATCC 700221; assay type: cell-based; conditions: ESKAPE panel; strain not given, ampicillin > 16 fits the 16-to-0.03 µM series of Evotec
Procedure: as §2, §3

[9] = system: Escherichia coli ATCC 25922; assay type: cell-based; conditions: strain not given, assigned to the Evotec series
Procedure: as §2, §3

[10] = system: Klebsiella pneumoniae ATCC 700603; assay type: cell-based; conditions: ESKAPE panel; strain not given, ampicillin > 16 fits the 16-to-0.03 µM series of Evotec
Procedure: as §2, §3

[11] = calcein leakage, POPC:POPG (1:1 mol/mol) LUVs

Row | Substance | EC50 [1] | Antibacterial activity (MIC in µM) S. carnosus [2] | Antibacterial activity (MIC in µM) E. coli TOP10 [3] | EC50 [4] | Extent of leakage (in percentage) at increasing peptide-to-lipid ratio (mol/mol) 1:50 [5, 11] | Extent of leakage (in percentage) at increasing peptide-to-lipid ratio (mol/mol) 1:100 [5, 11] | also measured
1 | RRRRLRRILRRLFQFINQLDNQLQDIRQNR-NH2 [RDFA2i+9-NH2] | 0.9 µM | 0.8 µM | 1.6 µM | 16 µM | 101.1 ± 0.8 percentage | 65.8 ± 4.1 percentage | EC50 ([1]; 1 h): 0.9 µM
2 | KKKKVKKVVKKVFSFVDSVDSDVSDVKKKK-NH2 [KDFC16+9SV-NH2] | > 50 µM |  | 25 µM | > 150 µM |  |  | MIC against S. carnosus ([2]; 24 h at 37 °C, dilution series 50 to 0.1 µM): 0.4 µM; times higher MIC than that of ampicillin, S. carnosus ([2]; ratio to ampicillin): 4; calcein / vesicle leakage, pore-forming ability (in words) ([5]; POPC:POPG (1:1) LUVs): did not cause calcein leakage
3 | KKKKLKKILKKLFQFINQLDNQLQDIAQNA-NH2 [KDFA2i+7-npNH2] |  |  |  |  | Aggregated peptides and no leakage | Aggregated peptides and no leakage | Extent of leakage (in percentage) at increasing peptide-to-lipid ratio (mol/mol) 1:10 ([5]; calcein leakage, peptide-to-lipid ratio 1:10 (mol/mol), POPC:POPG (1:1 mol/mol) LUVs): Aggregated peptides and no leakage; Extent of leakage (in percentage) at increasing peptide-to-lipid ratio (mol/mol) 1:20 ([5]; calcein leakage, peptide-to-lipid ratio 1:20 (mol/mol), POPC:POPG (1:1 mol/mol) LUVs): Aggregated peptides and no leakage; aggregation / solubilization problem (in words) [6]: peptide aggregation
4 | KKKKLKKILKKLFQFINQLDNQLQDIKKKK-NH2 [KDFA2i+11-NH2] |  | 0.2 µM | 0.2 µM |  |  |  | EC50 ([1]; hemolysis assay, HRBCs, read-out: Toxicity (EC50 in µM) HRBCs): > 50 µM; MIC against A. baumannii [7]: 1.4 µM; MIC against E. faecium [8]: 1.9 µM; MIC against E. coli (ESKAPE panel) [9]: 1.4 µM; MIC against K. pneumoniae [10]: 3.8 µM
